# Measurements: patent US4668689A, “Glutarimide derivatives for treating oestrogen-dependent tumors” (National Research Development Corporation, priority 1984, dated 1987)
# Read-outs that look alike come from different tables or passages of the source.
# Columns and labels:
# desmolase [1] = settings: literature; cited from earlier work
# desmolase [2] = molecular target: T1, desmolase (Bos taurus, UniProt P00189); test: Desmolase inhibition, (26-^14C)-cholesterol as substrate (7 micromolar), mitochondrial fraction of bovine adrenal cortex; assay type: biochemical
# T1 construct: The mitochondrial fraction of bovine adrenal cortex provided the source of desmolase; from tissue; host or cells: bovine adrenal cortex, mitochondrial fraction
# T1 sequence (P00189 40-520): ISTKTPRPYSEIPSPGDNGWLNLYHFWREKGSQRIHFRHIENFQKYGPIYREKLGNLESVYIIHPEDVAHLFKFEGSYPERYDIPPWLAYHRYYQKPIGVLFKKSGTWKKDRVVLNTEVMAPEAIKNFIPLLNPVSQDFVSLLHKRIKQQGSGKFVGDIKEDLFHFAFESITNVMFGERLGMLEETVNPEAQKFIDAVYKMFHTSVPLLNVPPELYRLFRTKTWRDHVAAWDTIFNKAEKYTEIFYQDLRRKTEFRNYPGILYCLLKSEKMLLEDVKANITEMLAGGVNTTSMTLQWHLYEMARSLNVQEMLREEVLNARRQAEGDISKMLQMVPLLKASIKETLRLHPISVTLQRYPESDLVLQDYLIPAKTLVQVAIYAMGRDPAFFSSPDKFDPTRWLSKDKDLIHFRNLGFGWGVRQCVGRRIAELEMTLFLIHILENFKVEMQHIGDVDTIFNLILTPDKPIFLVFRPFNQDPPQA
# [3] = CNS (sedative-hypnotic) activity; settings: in vivo
# aromatase [4] = molecular target: T2, aromatase (Homo sapiens, UniProt P11511); test: Aromatase inhibition, (1,2-^3H) androstene-3,17-dione as substrate (0.38 micromolar), microsomal fraction of human placental tissue; assay type: biochemical; settings: 0.38 micromolar (^3H) androstene-3,17-dione, 30° C., "None" = no inhibition; for IC50: read-out: IC50 Aromatase Androstenedione
# T2 construct: Aromatase was obtained from the microsomal fraction of human placental tissue; from tissue; host or cells: human placenta, microsomal fraction
# T2 sequence (P11511 1-503): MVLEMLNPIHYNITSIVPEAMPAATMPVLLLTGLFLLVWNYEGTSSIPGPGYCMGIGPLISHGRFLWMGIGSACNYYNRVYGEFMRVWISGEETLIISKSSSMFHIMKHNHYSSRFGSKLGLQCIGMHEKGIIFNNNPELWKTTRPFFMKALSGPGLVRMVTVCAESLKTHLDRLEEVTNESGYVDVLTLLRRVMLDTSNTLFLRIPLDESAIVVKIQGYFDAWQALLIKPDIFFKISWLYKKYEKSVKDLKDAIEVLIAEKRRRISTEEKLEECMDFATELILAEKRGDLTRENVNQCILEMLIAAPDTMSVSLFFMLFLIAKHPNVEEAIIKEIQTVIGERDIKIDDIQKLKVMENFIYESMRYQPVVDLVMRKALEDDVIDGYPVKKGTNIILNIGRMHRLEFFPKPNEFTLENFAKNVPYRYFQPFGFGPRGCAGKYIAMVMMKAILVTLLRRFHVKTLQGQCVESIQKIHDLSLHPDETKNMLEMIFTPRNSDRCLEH
# aromatase [5] = molecular target: T2, aromatase; test: Aromatase inhibition, (1,2-^3H) testosterone as substrate (1.5 micromolar), microsomal fraction of human placental tissue; assay type: biochemical; settings: for IC50: 1.5 micromolar (^3H) testosterone; for IC50 / IC50 Aromatase Testosterone: 30° C., "None" = no inhibition; for IC50 Aromatase Testosterone: […] (^3H) testosterone; for aromatase inhibition (in words): substrate not stated
# [6] = 7 micromolar (^14C) cholesterol, 30° C., "None" = no inhibition
# [7] = 7 micromolar (^14C) cholesterol, 30° C., "None" = no inhibition, read-out: IC50 Desmolase
SMILES,IC50 Desmolase (desmolase [2]; [6]),IC50 (aromatase [5]),also measured
CCC1(c2ccc(N)cc2)CCC(=O)NC1=O (centres unmarked) [Aminoglutethimide],–,–,inhibition of desmolase (desmolase [1]): also inhibits the enzyme desmolase
"CCC1(c2ccncc2)CCC(=O)NC1=O (centres unmarked) [Pyridoglutethimide, 3-ethyl-3-(4-pyridyl)piperidine-2,6-dione]",none,–,inhibition of desmolase (desmolase [1]): not desmolase; CNS (sedative-hypnotic) activity [3]: little or no CNS (sedative-hypnotic) activity
"O=C1CCC(CCC(F)(F)C(F)(F)C(F)(F)F)(c2ccncc2)C(=O)N1 (centres unmarked) [R1=(CH2)2 (CF2)2 CF3, R2=H]",none,18 µM,IC50 (aromatase [4]): 22 µM
"O=C1CCC(CCC(F)(F)C(F)(F)C(F)(F)C(F)(F)F)(c2ccncc2)C(=O)N1 (centres unmarked) [R1=(CH2)2 (CF2)3 CF3, R2=H, reference compound]",none,18 µM,IC50 (aromatase [4]): 22 µM
"O=C1CCC(CCC(F)(F)C(F)(F)C(F)(F)C(F)(F)C(F)(F)C(F)(F)F)(c2ccncc2)C(=O)N1 (centres unmarked) [R1=(CH2)2 (CF2)5 CF3, R2=H, reference compound]",–,–,IC50 Aromatase Androstenedione (aromatase [4]): none; IC50 (desmolase [2]): 93 µM; IC50 Aromatase Testosterone (aromatase [5]): none
"O=C1CCC(CCC(F)(F)C(F)(F)C(F)(F)C(F)(F)C(F)(F)C(F)(F)C(F)(F)C(F)(F)F)(c2ccncc2)C(=O)N1 (centres unmarked) [R1=(CH2)2 (CF2)7 CF3, R2=H, reference compound]",–,–,IC50 Aromatase Androstenedione (aromatase [4]): none; IC50 (desmolase [2]): 79 µM
"O=C1CCC(CCC(F)(F)F)(c2ccncc2)C(=O)N1 (centres unmarked) [R1=(CH2)2 CF3, R2=H]",none,2.9 µM,IC50 (aromatase [4]): 7 µM
"CCC1(c2ccncc2)CCC(=O)N(CCC(F)(F)C(F)(F)C(F)(F)F)C1=O (centres unmarked) [R1=C2 H5, R2=(CH2)2 (CF2)2 CF3]",–,3 µM,IC50 (aromatase [4]): 15 µM; IC50 (desmolase [2]): 240 µM
"CCC1(c2ccncc2)CCC(=O)N(CCC(F)(F)C(F)(F)C(F)(F)C(F)(F)F)C1=O (centres unmarked) [R1=C2 H5, R2=(CH2)2 (CF2)3 CF3]",–,9 µM,IC50 (aromatase [4]): 9 µM; IC50 (desmolase [2]): 120 µM
"CCC1(c2ccncc2)CCC(=O)N(CCC(F)(F)C(F)(F)C(F)(F)C(F)(F)C(F)(F)C(F)(F)F)C1=O (centres unmarked) [R1=C2 H5, R2=(CH2)2 (CF2)5 CF3]",–,34 µM,IC50 (aromatase [4]): 23 µM; IC50 (desmolase [2]): 145 µM
"CCC1(c2ccncc2)CCC(=O)N(CCC(F)(F)C(F)(F)C(F)(F)C(F)(F)C(F)(F)C(F)(F)C(F)(F)C(F)(F)F)C1=O (centres unmarked) [R1=C2 H5, R2=(CH2)2 (CF2)7 CF3]",–,15 µM,IC50 Aromatase Androstenedione (aromatase [4]): none; IC50 (desmolase [2]): 150 µM
"CCC1(c2ccncc2)CCC(=O)N(CC(F)(F)C(F)(F)C(F)(F)F)C1=O (centres unmarked) [R1=C2 H5, R2=CH2 (CF2)2 CF3]",none,19 µM,IC50 (aromatase [4]): 106 µM
"CCC1(c2ccncc2)CCC(=O)N(CC(F)(F)F)C1=O (centres unmarked) [R1=C2 H5, R2=CH2 CF3]",–,14 µM,IC50 (aromatase [4]): 31 µM; IC50 (desmolase [2]; [7]): > 350 µM
"CCC1(c2ccncc2)CCC(=O)N(CCC(F)(F)F)C1=O (centres unmarked) [R1=C2 H5, R2=CH2 CH2 CF3]",none,11 µM,IC50 (aromatase [4]): 42 µM
"CCC1(c2ccncc2)CCC(=O)N(C)C1=O (centres unmarked) [R1=C2 H5, R2=CH3]",none,–,–
"CCC1(c2ccncc2)CCC(=O)N(CC2CCCCC2)C1=O (centres unmarked) [R1=C2 H5, R2=[drawing 7]]",none,9 µM,–
"CCN1C(=O)CCC(CC)(c2ccncc2)C1=O (centres unmarked) [R1=C2 H5, R2=n-C2 H5, reference compound]",–,–,IC50 (desmolase [2]; [7]): 92 µM
"CCCN1C(=O)CCC(CC)(c2ccncc2)C1=O (centres unmarked) [R1=C2 H5, R2=n-C3 H7]",none,–,–
"CCCCN1C(=O)CCC(CC)(c2ccncc2)C1=O (centres unmarked) [R1=C2 H5, R2=n-C4 H9]",none,–,–
"CCCCCN1C(=O)CCC(CC)(c2ccncc2)C1=O (centres unmarked) [R1=C2 H5, R2=n-C5 H11]",–,–,IC50 (desmolase [2]; [7]): 209 µM
"CCCCCCN1C(=O)CCC(CC)(c2ccncc2)C1=O (centres unmarked) [R1=C2 H5, R2=n-C6 H13]",none,–,–
"CCCCCCCN1C(=O)CCC(CC)(c2ccncc2)C1=O (centres unmarked) [R1=C2 H5, R2=n-C7 H15]",–,–,IC50 (desmolase [2]; [7]): 210 µM
"CCCCCCCCN1C(=O)CCC(CC)(c2ccncc2)C1=O (centres unmarked) [R1=C2 H5, R2=n-C8 H17]",–,–,IC50 (desmolase [2]; [7]): 110 µM
"CCCCCCCCCN1C(=O)CCC(CC)(c2ccncc2)C1=O (centres unmarked) [R1=C2 H5, R2=n-C9 H19]",–,–,IC50 (desmolase [2]; [7]): 175 µM; aromatase inhibition (in words) (aromatase [5]): dramatic increase
"CCCCCCCCCCN1C(=O)CCC(CC)(c2ccncc2)C1=O (centres unmarked) [R1=C2 H5, R2=n-C10 H21]",–,–,IC50 (desmolase [2]; [7]): 340 µM
"CCCCCCCCC1(c2ccncc2)CCC(=O)N(CCCC)C1=O (centres unmarked) [R1=n-C8 H17, R2=n-C4 H9, reference compound]",–,–,IC50 (desmolase [2]; [7]): 106 µM; IC50 Aromatase Testosterone (aromatase [5]): none; aromatase inhibition (in words) (aromatase [5]): no aromatase inhibition
"CCCCCCCCN1C(=O)CCC(CCCCCCCC)(c2ccncc2)C1=O (centres unmarked) [R1=n-C8 H17, R2=n-C8 H17, reference compound]",–,–,IC50 (desmolase [2]; [7]): 169 µM; IC50 Aromatase Testosterone (aromatase [5]): none

# More lines, main results first:
IC50 Desmolase (desmolase [2]; [6]),IC50 (aromatase [5]),SMILES,also measured
none,> 90 µM,"CN1C(=O)CCC(C)(c2ccncc2)C1=O (centres unmarked) [R1=CH3, R2=CH3, reference compound]",–
none,–,"CC1(c2ccncc2)CCC(=O)NC1=O (centres unmarked) [R1=CH3, R2=H, reference compound]",–
none,–,"CCCC1(c2ccncc2)CCC(=O)NC1=O (centres unmarked) [R1=n-C3 H7, R2=H]",–
none,–,"CCCCC1(c2ccncc2)CCC(=O)NC1=O (centres unmarked) [R1=n-C4 H9, R2=H]",–
none,2.1 µM,"CCCCN1C(=O)CCC(CCCC)(c2ccncc2)C1=O (centres unmarked) [R1=n-C4 H9, R2=n-C4 H9]",–
none,3.2 µM,"CCCCCC1(c2ccncc2)CCC(=O)NC1=O (centres unmarked) [R1=n-C5 H11, R2=H]",–
none,3.8 µM,"CCCCCCC1(c2ccncc2)CCC(=O)NC1=O (centres unmarked) [R1=n-C6 H13, R2=H]",–
none,2.1 µM,"CCCCCCC1(c2ccncc2)CCC(=O)N(CC)C1=O (centres unmarked) [R1=n-C6 H13, R2=n-C2 H5]",–
none,2 µM,"CCCCCCCC1(c2ccncc2)CCC(=O)NC1=O (centres unmarked) [R1=n-C7 H15, R2=H]",–
none,–,"CCCCCCCCC1(c2ccncc2)CCC(=O)NC1=O (centres unmarked) [R1=n-C8 H17, R2=H]",–
–,10 µM,"CCCCCCCCC1(c2ccncc2)CCC(=O)N(CCCCCC)C1=O (centres unmarked) [R1=n-C8 H17, R2=n-C6 H13, reference compound]",desmolase inhibition (in words) (desmolase [2]): significant desmolase inhibition; IC50 (desmolase [2]; [7]): 73 µM
none,–,"CCCCCCCCCC1(c2ccncc2)CCC(=O)NC1=O (centres unmarked) [R1=n-C9 H19, R2=H]",–
